Experimental data reported in patent US10231453B2, “5-substituted imidazole derivatives” (BAYER CROPSCIENCE AKTIENGESELLSCHAFT, priority 2015, dated 2019).

Tests used:
Botrytis cinerea = experiment: In vivo preventive test on Botrytis cinerea (grey mould) on gherkin, Examples B, Q1 and R2; settings: Botrytis cinerea, 500 ppm of active ingredient, preventive spray, evaluated 4 to 5 days after inoculation, read-out: efficacy
Alternaria solani = experiment: In vivo preventive Alternaria test (tomatoes), Example H; settings: 72 h, 100 ppm of active ingredient, preventive spray, evaluated 3 days after inoculation, read-out: efficacy
Septoria tritici = experiment: In vivo preventive test on Septoria tritici (leaf spot on wheat), Examples E, Q3 and R5; settings: Zymoseptoria tritici, 576 h, 500 ppm of active ingredient; wheat, preventive spray, evaluated 24 days after inoculation; read-out: efficacy
Puccinia recondita = experiment: In vivo preventive test on Puccinia recondita (brown rust on wheat), Examples C and R3; settings: Puccinia recondita, 264 h; 500 ppm of active ingredient; wheat, preventive spray, evaluated 11 days after inoculation; read-out: efficacy
Uromyces appendiculatus = experiment: In vivo preventive test on Uromyces appendiculatus (bean rust), Examples G and R7; settings: 264 h, 500 ppm of active ingredient, bean, preventive spray, evaluated 11 days after inoculation, read-out: efficacy
Phakopsora pachyrhizi = experiment: In vivo preventive Phakopsora test (soybeans), Example I; settings: 168 h, 100 ppm of active ingredient, preventive spray, evaluated 7 days after inoculation, read-out: efficacy
[1] = Measurement of LogP values by HPLC on reversed phase columns (EEC directive 79/831 Annex V.A8); type: physicochemical; settings: method [a]: LC-UV, acidic range, 0.1% formic acid in water and acetonitrile as eluent; Table 1
Protocol: Measurement of Log P values was performed as outlined above.

Sphaerotheca fuliginea = experiment: In vivo preventive test on Sphaerotheca fuliginea (powdery mildew on cucurbits), Examples F and R6; settings: Podosphaera fuliginea, 360 h; 500 ppm of active ingredient; gherkin, preventive spray, evaluated 15 days after inoculation; read-out: efficacy
Pyrenophora teres = experiment: In vivo preventive test on Pyrenophora teres (net blotch on barley), Examples D, Q2 and R4; settings: Pyrenophora teres, 336 h, 500 ppm of active ingredient, preventive spray, evaluated 14 days after inoculation, read-out: efficacy
Pyricularia oryzae = experiment: whole plant or invertebrate; type: in vivo; settings: 192 h, read-out: efficacy
[2] = test system: Blumeria graminis fsp. hordei; experiment: In vivo preventive Blumeria test (barley), Example K; settings: 168 h, 500 ppm of active ingredient, preventive spray, evaluated 7 days after inoculation, read-out: efficacy
Description: After the spray coating has been dried, the plants are dusted with spores of Blumeria graminis fsp. hordei.

Venturia inaequalis = experiment: In vivo preventive Venturia test (apples), Example J; settings: 240 h, read-out: efficacy
Protocol: After the spray coating has dried on, the plants are inoculated with an aqueous conidia suspension of the causal agent of apple scab (Venturia inaequalis) and then remain for 1 day in an incubation cabinet at approximately 20° C. and a relative atmospheric humidity of 100%.
The plants are then placed in a greenhouse at approximately 21° C. and a relative atmospheric humidity of approximately 90%.
The test is evaluated 10 days after the inoculation.

Alternaria brassicae = experiment: In vivo preventive test on Alternaria brassicae (leaf spot on radish), Examples A and R1; settings: Alternaria brassicae, 144 h, 500 ppm of active ingredient, preventive spray, evaluated 6 days after inoculation, read-out: efficacy
Fusarium graminearum = experiment: whole plant or invertebrate; type: in vivo; settings: in Hordeum vulgare, 120 h, read-out: efficacy

Structure (SMILES)	pest or weed control at 500 ppm (Botrytis cinerea)	pest or weed control at 100 ppm (Alternaria solani)	pest or weed control at 500 ppm (Septoria tritici)	pest or weed control at 500 ppm (Puccinia recondita)	pest or weed control at 500 ppm (Uromyces appendiculatus)	pest or weed control at 100 ppm (Phakopsora pachyrhizi)	chromatographic logP [1]	pest or weed control at 500 ppm (Sphaerotheca fuliginea)	pest or weed control at 500 ppm (Pyrenophora teres)	pest or weed control at 500 ppm (Pyricularia oryzae)	pest or weed control at 500 ppm [2]	pest or weed control at 100 ppm (Venturia inaequalis)	pest or weed control at 500 ppm (Alternaria brassicae)	pest or weed control at 500 ppm (Fusarium graminearum)
OC(Cn1cncc1Cl)(C(F)c1ccccc1Cl)C1(Cl)CC1 (stereo not shown) [Example I-05]	90 to 100%	70 to 79%	80 to 89%	80 to 89%	90 to 100%	90 to 100%	2.17	90 to 100%	–	–	–	–	–	–
OC(Cc1cc(Cl)ncc1Cl)(Cn1cncc1Cl)C1(Cl)CC1 (stereo not shown) [Example I-17]	80 to 89%	90 to 100%	90 to 100%	80 to 89%	90 to 100%	90 to 100%	2.18	90 to 100%	90 to 100%	90 to 100%	70 to 79%	90 to 100%	90 to 100%	–
CSc1cncn1CC(O)(Cc1ccccc1Cl)C1(Cl)CC1 (stereo not shown) [Example I-22]	–	–	90 to 100%	90 to 100%	90 to 100%	–	2.08	90 to 100%	80 to 89%	80 to 89%	90 to 100%	–	80 to 89%	–
OC(Cn1cncc1Br)(C(F)c1ccccc1Cl)C1(Cl)CC1 (stereo not shown) [Example I-23]	–	–	90 to 100%	90 to 100%	90 to 100%	90 to 100%	2.32	90 to 100%	80 to 89%	–	–	–	80 to 89%	–
OC(Cc1cccnc1Cl)(Cn1cncc1Br)C1(Cl)CC1 (stereo not shown) [Example I-25]	90 to 100%	–	90 to 100%	80 to 89%	90 to 100%	–	1.56	90 to 100%	80 to 89%	70 to 79%	70 to 79%	–	–	–
N#Cc1cncn1CC(O)(Cc1ccccc1Br)C1(Cl)CC1 (stereo not shown) [Example I-40]	90 to 100%	90 to 100%	90 to 100%	80 to 89%	90 to 100%	90 to 100%	–	90 to 100%	70 to 79%	70 to 79%	90 to 100%	80 to 89%	80 to 89%	–
OC(Cc1ccc(Br)cc1Cl)(Cn1cncc1Cl)C1(Cl)CC1 (stereo not shown) [Example I-43]	90 to 100%	80 to 89%	90 to 100%	90 to 100%	90 to 100%	90 to 100%	–	90 to 100%	90 to 100%	–	80 to 89%	–	–	–
COc1ccccc1CC(O)(Cn1cncc1C#N)C1(Cl)CC1 (stereo not shown) [Example I-55]	90 to 100%	–	90 to 100%	90 to 100%	90 to 100%	–	2.93	90 to 100%	80 to 89%	–	–	–	80 to 89%	–
N#Cc1cncn1CC(O)(Cc1ccc(Cl)cc1)C1(Cl)CC1 (stereo not shown) [Example I-64]	–	–	90 to 100%	90 to 100%	90 to 100%	–	3.1	90 to 100%	–	–	90 to 100%	–	–	80 to 89%
OC(Cc1cccc(Cl)c1Cl)(Cn1cncc1Cl)C1(Cl)CC1 (stereo not shown) [Example I-66]	70 to 79%	–	90 to 100%	90 to 100%	90 to 100%	–	2.69	90 to 100%	90 to 100%	–	–	–	70 to 79%	–
